Data taken from ChEMBL document CHEMBL1149339, “Vasorelaxant activity of cyclic peptide, cyclosquamosin B, from Annona squamosa” (Bioorg Med Chem Lett, 2006).
The source made the active and inactive calls.

What was measured:
Format in all cases: functional, organism-based
Rattus norvegicus [1] = organism: Rattus norvegicus; test: Inhibition of norepinephrine-induced contraction in rat aorta mediated by receptor operated calcium channel in presence of nicardipine at 10 uM
Rattus norvegicus [2] = organism: Rattus norvegicus; test: Vasorelaxant activity against norepinephrine-induced contraction of rat thoracic aortic ring with endothelium; conditions: Aorta
Rattus norvegicus [3] = organism: Rattus norvegicus; test: Vasorelaxant activity against norepinephrine-induced contraction of rat thoracic aortic ring without endothelium; conditions: Aorta
Rattus norvegicus [4] = organism: Rattus norvegicus; test: Inhibition of potassium ion depolarized calcium-induced contraction of rat aorta mediated by voltage dependent calcium channel at 10 uM

Measured: Activity

CC[C@@H](C)[C@@H]1NC(=O)[C@@H]2CCCN2C(=O)[C@@H]2CCCN2C(=O)[C@H](CCC(N)=O)NC(=O)[C@H](CCSC)NC(=O)[C@H](CC(C)C)NC(=O)CN(C)C(=O)[C@H]([C@H](C)O)NC1=O
active: all assays above
